The target in this assay is T1, human mGlu2 receptor (Homo sapiens, UniProt Q14416).
T1 construct: expressed in transfected cells; host or cells: CHO cells (membrane preparation)
Nature of the assay: [35S]GTPγS binding assay (mGluR2 negative allosteric modulation). Format: biochemical. The settings on record: for IC50: read-out: GTPγS - hmGluR2 anGT pIC50 (converted); for Emax: read-out: GTPγS - hmGluR2 anGT Emax. The method, then: 1) [^35S]GTPγS binding assay
The [^35S]GTPγS binding assay is a functional membrane-based assay used to study G-protein coupled receptor (GPCR) function whereby incorporation of a non-hydrolysable form of GTP, [^35S]GTPγS (guanosine 5′-triphosphate, labelled with […] ^35S), is measured. The G-protein a subunit catalyzes the exchange of guanosine 5′-diphosphate (GDP) by guanosine triphosphate (GTP) and on activation of the GPCR by an agonist, [^35S]GTPγS, becomes incorporated and cannot be cleaved to continue the exchange cycle (Harper (1998) Current Protocols in Pharmacology 2.6.1-10, John Wiley & Sons, Inc.). […] Here we describe the use of the [^35S]GTPγS binding assay using membranes from cells transfected with the human mGlu2 receptor and adapted from Schaffhauser et al. (Molecular Pharmacology, 2003, […]) for the detection of the negative allosteric modulation (NAM) properties of the compounds of this invention.
CHO-cells were cultured to pre-confluence and stimulated with 5 mM butyrate for 24 h. Cells were then collected by scraping in PBS and cell suspension was centrifuged (10 min at 4000 RPM in benchtop centrifuge). Supernatant was discarded and pellet gently resuspended in 50 mM Tris-HCl, pH 7.4 by mixing with an Ultra Turrax homogenizer. The suspension was centrifuged at 12,400 RPM (Sorvall F14S-6x250Y) for 10 minutes and the supernatant discarded. The pellet was homogenized in 5 mM Tris-HCl, pH 7.4 using an Ultra Turrax homogenizer and centrifuged again (13,000 RPM, 20 min, 4° C.). The final pellet was resuspended in 50 mM Tris-HCl, pH 7.4 and stored at −80° C. in appropriate aliquots before use. Protein concentration was determined by the Bradford method (Bio-Rad, USA) with bovine serum albumin as standard.
Measurement of mGluR2 negative allosteric modulatory activity of test compounds was performed as follows. Test compounds and glutamate were diluted in assay buffer containing 10 mM HEPES acid, 10 mM HEPES salt, pH 7.4, 100 mM NaCl, 3 mM MgCl2 and 10 μM GDP. Human mGlu2 receptor-containing membranes were thawed on ice and diluted in assay buffer supplemented with 18 μg/ml saponin. […] After addition of [^35S]GTPγS (f.c. 0.1 nM), assay mixtures were shaken briefly and further incubated to allow [^35S]GTPγS incorporation on activation (30 minutes, 30° C.). Final assay mixtures contained 7 μg of membrane protein in 10 mM HEPES acid, 10 mM HEPES salt, pH 7.4, 100 mM NaCl, 3 mM MgCl2, 10 μM GDP and 10 μg/ml saponin. Total reaction volume was 200 μl. Reactions were terminated by rapid filtration through Unifilter-96 GF/B plates (Perkin Elmer, Massachusetts, USA) using a 96-well filtermate universal harvester. Filters were washed 6 times with ice-cold 10 mM NaH2PO4/10 mM Na2HPO4, pH 7.4. Filters were then air-dried, and 30 μl of liquid scintillation cocktail (Microscint-O) was added to each well. Membrane-bound radioactivity was counted in a Topcount.
The concentration-response curves of representative compounds of the present invention were generated using the Lexis software interface (developed at J&J). Data were calculated as % of the control glutamate response, defined as the response that is generated upon addition of an EC80-equivalent concentration of glutamate.
For orientation: GTPγS is a poorly hydrolysed GTP analogue; its binding reports G protein activation.

Where [1] appears, read: membranes from CHO cells transfected with human mGlu2 receptor, glutamate 60 μM, pIC50 = −log IC50 (M).
Where [2] appears, read: relative maximal effect: maximal % inhibition relative to the control glutamate response.

T1 sequence (Q14416 19-872): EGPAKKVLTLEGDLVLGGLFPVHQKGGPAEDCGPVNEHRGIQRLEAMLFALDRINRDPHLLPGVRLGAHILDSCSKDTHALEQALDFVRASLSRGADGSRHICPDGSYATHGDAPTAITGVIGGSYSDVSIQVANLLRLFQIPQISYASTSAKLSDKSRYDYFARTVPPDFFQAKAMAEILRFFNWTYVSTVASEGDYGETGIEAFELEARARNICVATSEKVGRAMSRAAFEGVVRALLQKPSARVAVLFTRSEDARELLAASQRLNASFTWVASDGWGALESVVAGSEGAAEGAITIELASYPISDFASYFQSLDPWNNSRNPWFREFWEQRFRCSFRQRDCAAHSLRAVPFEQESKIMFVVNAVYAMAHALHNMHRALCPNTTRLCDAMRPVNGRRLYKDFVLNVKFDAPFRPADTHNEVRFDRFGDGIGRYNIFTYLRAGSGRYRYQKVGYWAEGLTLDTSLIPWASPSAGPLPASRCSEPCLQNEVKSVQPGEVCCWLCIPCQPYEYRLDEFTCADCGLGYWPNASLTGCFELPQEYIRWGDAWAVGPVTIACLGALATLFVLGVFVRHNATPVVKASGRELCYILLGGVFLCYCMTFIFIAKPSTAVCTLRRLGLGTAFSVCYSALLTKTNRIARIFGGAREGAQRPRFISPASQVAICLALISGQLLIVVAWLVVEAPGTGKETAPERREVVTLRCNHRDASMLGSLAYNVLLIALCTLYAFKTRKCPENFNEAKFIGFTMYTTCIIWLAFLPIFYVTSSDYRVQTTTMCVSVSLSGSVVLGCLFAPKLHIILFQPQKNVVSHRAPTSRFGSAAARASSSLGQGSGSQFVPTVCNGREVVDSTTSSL

Regarding `Cc1cc(-c2cnn3c2C(=O)N(c2ccc(Cl)c(Cl)n2)C[C@@H]3C)ccn1` [compound 202], under setting [1], the IC50 was 1.02e-08 M. In addition, the Emax under setting [2] was 103%.

On to `Cc1cc(-c2cnn3c2C(=O)N(c2ccc(C(F)(F)F)c(OCCF)c2)C[C@@H]3C)ccn1` [compound 48], for which the IC50 under setting [1] was 7.76e-09 M. The maximum response (Emax) under setting [2] turned out to be 100%.

For `COCC1CN(c2ccc(C(F)(F)F)cc2)C(=O)c2c(-c3ccnc(C)c3)cnn21` (single isomer, unassigned) [compound 120], under setting [1], the IC50 was 6.46e-08 M. Further, the “GTPγS - hmGluR2 anGT Emax” value under setting [2] is listed as 106%.

`Cc1cc(-c2cnn3c2C(=O)N(c2ccc(Br)cc2)C[C@@H]3C)ccn1` [compound 139]: the IC50 under setting [1] is 3.63e-08 M. Under setting [2], the Emax was determined as 106%.

For the compound `Cc1cc(-c2cnn3c2C(=O)N(c2ccc(F)c(C(F)(F)F)c2)C[C@@H]3C)ccn1` [compound 67, (7S)-5-[4-Fluoro-3-(trifluoromethyl)phenyl]-7-methyl-3-(2-methyl-4-pyridyl)-6,7-dihydropyrazolo[1,5-a]pyrazin-4-one], the IC50 under setting [1] is 6.31e-08 M. For the same compound, the Emax under setting [2] stood at 104%.

Turning to `COc1cc(-c2cnn3c2C(=O)N(c2ccc(Cl)cc2)C[C@@H]3C)ccn1` [compound 89], the IC50 under setting [1] is 4.17e-08 M. Besides, the Emax under setting [2] was 104%.

As for `Cc1cc(-c2cnn3c2C(=O)N(c2ccc(Cl)c(Cl)c2)C[C@@H]3C)cc[n+]1[O-]` [compound 170, (7S)-5-(3,4-dichlorophenyl)-7-methyl-3-(2-methyl-1-oxido-pyridin-1-ium-4-yl)-6,7-dihydropyrazolo[1,5-a]pyrazin-4-one], the IC50 under setting [1] is 7.24e-08 M. Besides, the Emax under setting [2] is 107%.

Turning to `Cc1cc(-c2cnn3c2C(=O)N(c2ccc(Cl)cc2Cl)CC3)ccn1` [compound 244], under setting [1], the IC50 is 8.71e-06 M. The Emax under setting [2] worked out at 80%.

For `Cc1cc(-c2cnn3c2C(=O)N(c2ccc(C(F)(F)F)c(CF)c2)C[C@@H]3C)ccn1` [compound 98], the IC50 under setting [1] was 6.46e-09 M. The maximum response (Emax) under setting [2] was found to be 111%.

Turning to `CC(C)Oc1cc(-c2cnn3c2C(=O)N(c2ccc(Cl)c(Cl)c2)C[C@@H]3C)ccn1` [compound 137], the IC50 under setting [1] is 1.82e-08 M. Besides, under setting [2], the Emax is 107%.

Regarding `CC(C)Nc1cc(-c2cnn3c2C(=O)N(c2ccc(Cl)c(Cl)c2)C[C@@H]3C)ccn1` [compound 261], the IC50 under setting [1] was 1.1e-08 M. The maximal response (Emax) under setting [2] worked out at 107%.

With `CNc1cc(-c2cnn3c2C(=O)N(c2ccc(C(F)(F)F)c(C#N)c2)C[C@@H]3C)ccn1` [compound 179], the IC50 under setting [1] is 3.63e-08 M. Also, the Emax under setting [2] was determined as 103%.

Regarding `CCCNc1cc(-c2cnn3c2C(=O)N(c2ccc(C(F)(F)F)cc2)C[C@@H]3C)ccn1` [compound 259], under setting [1], the IC50 is 1.78e-08 M. For the same compound, the Emax under setting [2] was 105%.

In the case of `COc1cc(Cl)ccc1N1C[C@H](C)n2ncc(-c3ccnc(C)c3)c2C1=O` [compound 161], the IC50 under setting [1] was 1.55e-05 M. Besides, under setting [2], the Emax was determined as 76%.

As to `CCC1CN(c2ccc(C(F)(F)F)cc2)C(=O)c2c(-c3ccnc(C)c3)cnn21` (stereo not drawn) [compound 70], the “GTPγS - hmGluR2 anGT pIC50” value under setting [1] is recorded as 7.1. In addition, under setting [2], the maximal effect (Emax) came out at 106%.

`CCCNc1cc(-c2cnn3c2C(=O)N(c2ccc(Cl)c(Cl)c2)C[C@@H]3C)ccn1` [compound 263]: under setting [1], the IC50 is 4.68e-09 M. Moreover, the maximal response (Emax) under setting [2] came out at 109%.

As to `CCc1cc(-c2cnn3c2C(=O)N(c2ccc(Cl)c(Cl)c2)C[C@@H]3C)ccn1` [compound 134], under setting [1], the IC50 is 3.24e-09 M. In addition, the maximal response (Emax) under setting [2] was 104%.

With `Cc1cc(-c2cnn3c2C(=O)N(c2ccc(C(F)(F)F)cn2)C[C@@H]3C)cc(C)n1` [compound 194], under setting [1], the IC50 was 1.38e-07 M. For the same compound, the Emax under setting [2] was 107%.

Take `Cc1cc(-c2cnn3c2C(=O)N(c2ccc(C(C)C)cc2)C[C@@H]3C)ccn1` [compound 65]: under setting [1], the IC50 was 4.47e-08 M. Besides, the maximal effect (Emax) under setting [2] amounted to 106%.

Take `Cc1cc(-c2cnn3c2C(=O)N(c2ccc(C(C)C(F)(F)F)cc2)C[C@@H]3C)ccn1` (stereo partly drawn) [compound 113]: the IC50 under setting [1] is 9.12e-08 M. Besides, the maximal response (Emax) under setting [2] came out at 103%.

For `CCOc1cc(-c2cnn3c2C(=O)N(c2ccc(Cl)c(Cl)c2)C[C@@H]3C)ccn1` [compound 133], under setting [1], the IC50 is 8.32e-09 M. For the same compound, the maximum response (Emax) under setting [2] is 104%.

On to `C[C@H]1CN(c2ccc(C(F)(F)F)c(Cl)c2)C(=O)c2c(-c3ccnc(N4CCC4)c3)cnn21` [compound 96], for which, under setting [1], the IC50 is 1.23e-09 M. For the same compound, the Emax under setting [2] was determined as 108%.

For `CNc1cc(-c2cnn3c2C(=O)N(c2ccc(Cl)c(Cl)c2)CC3CF)ccn1` (single isomer, unassigned) [compound 184], the IC50 under setting [1] was 2.75e-07 M. Moreover, the Emax under setting [2] was determined as 105%.

As to `Cc1cc(-c2cnn3c2C(=O)N(c2ccc(F)cc2)C[C@@H]3C)ccn1` [compound 28], under setting [1], the IC50 is 2.4e-07 M. Moreover, the Emax under setting [2] worked out at 105%.

Turning to `C[C@H]1CN(c2ccc(Cl)c(Cl)c2)C(=O)c2c(-c3ccnc(C4CC4)c3)cnn21` [compound 122], the IC50 under setting [1] was 3.72e-09 M. Moreover, the Emax under setting [2] is 108%.

Take `COc1ccc(N2C[C@H](C)n3ncc(-c4ccnc(C)c4)c3C2=O)cc1Cl` [compound 20]: under setting [1], the IC50 is 8.71e-08 M. For the same compound, under setting [2], the Emax was found to be 104%.

As for `Cc1cc(-c2cnn3c2C(=O)N(c2cc(Cl)c(C)cn2)C[C@@H]3C)ccn1` [compound 198], the IC50 under setting [1] is 9.12e-08 M. Moreover, under setting [2], the Emax amounted to 104%.

Regarding `COc1nc(N2C[C@H](C)n3ncc(-c4ccnc(N5CCC5)c4)c3C2=O)ccc1C(F)(F)F` [compound 209], the IC50 under setting [1] was 6.46e-09 M. Also, the maximal effect (Emax) under setting [2] was found to be 104%.

Take `Cc1cc(N2C[C@H](C)n3ncc(-c4ccnc(N5CCC5)c4)c3C2=O)ccc1C(F)(F)F` [compound 260]: under setting [1], the IC50 is 3.55e-09 M. The maximum response (Emax) under setting [2] worked out at 105%.

Take `Cc1cc(-c2cnn3c2C(=O)N(c2ccc(C)c(F)c2)C[C@@H]3C)ccn1` [compound 76]: under setting [1], the IC50 was 2.82e-07 M. Further, under setting [2], the Emax stood at 100%.

Regarding `Cc1cc(-c2cnn3c2C(=O)N(c2ccc(Cl)c(Cl)c2)CC3CF)ccn1` (single isomer, unassigned) [compound 115], the IC50 under setting [1] is 7.08e-09 M. Also, the Emax under setting [2] stood at 108%.

Regarding `Cc1cc(-c2cnn3c2C(=O)N(c2ccccc2)C[C@@H]3C)ccn1` [compound 86], the IC50 under setting [1] was 1e-06 M. Further, under setting [2], the Emax turned out to be 102%.

For the compound `Cc1cc(-c2cnn3c2C(=O)N(c2ccc(C(F)(F)F)cn2)CC3)ccn1` [compound 211], the IC50 under setting [1] is 3.72e-06 M. The Emax under setting [2] is 92%.

As to `C[C@H]1CN(c2ccc(C(F)(F)F)c(Cl)c2)C(=O)c2c(-c3ccnc(CF)c3)cnn21` [compound 265], under setting [1], the IC50 was 5.5e-09 M. The maximal response (Emax) under setting [2] was found to be 111%.

Regarding `CCOc1ccc(N2C[C@H](C)n3ncc(-c4ccnc(C)c4)c3C2=O)cc1Cl` [compound 17], under setting [1], the IC50 was 4.79e-08 M. The maximum response (Emax) under setting [2] was 104%.

For `CCN(C)c1cc(-c2cnn3c2C(=O)N(c2ccc(C(F)(F)F)cc2)C[C@@H]3C)ccn1` [compound 253], the IC50 under setting [1] is 6.17e-09 M. For the same compound, under setting [2], the maximal response (Emax) was determined as 111%.

In the case of `CC(C)Nc1cc(-c2cnn3c2C(=O)N(c2ccc(C(F)(F)F)c(Cl)c2)C[C@@H]3C)ccn1` [compound 262], the IC50 under setting [1] was 6.17e-09 M. In addition, the maximal effect (Emax) under setting [2] was determined as 109%.

For the compound `CNc1cc(-c2cnn3c2C(=O)N(c2ccc(Cl)c(Cl)c2)CC3CF)ccn1` (stereo not drawn) [compound 93], the IC50 under setting [1] is 1.82e-08 M. Moreover, the Emax under setting [2] is 105%.

Consider `Cc1cc(-c2cnn3c2C(=O)N(c2ccc(OC(C)C(F)(F)F)cc2)C[C@@H]3C)ccn1` (stereo partly drawn) [compound 165], for which the IC50 under setting [1] was 1.95e-08 M. The Emax under setting [2] was determined as 102%.

One may read the Emax as the greatest response seen or fitted, relative to the assay's reference.

For the origin of these results see patent US10106542B2, “Substituted 6,7-dihydropyrazolo[1,5-a]pyrazines as negative allosteric modulators of mGluR2 receptors” (Janssen Pharmaceutica NV, priority 2013, dated 2018).
